This is an account of results in US20240382432A1, “SINGLE CHAIN VARIABLE FRAGMENT (SCFV) MODIFIED LIPID NANOPARTICLE COMPOSITIONS AND USES THEREOF” (Generation Bio Co., priority 2021, published 2024).

In assay [1] the target is T1, HER2 receptor (Homo sapiens, UniProt P04626).
T1 construct: endogenous in cells; host or cells: Sk-BR3, Sk-OV3 (HER2+); MCF7 (HER2-, negative control)
Nature of the assay: HER2 scFv ligand internalization in cell-based assay (pHrhodo label). As to the method:
(§1) As proof of concept, HER2 scFv binding and internalization in cell-based assays in vitro was carried out.

Assay [2] has as its system HER2 receptor. The description is as above. To be noted: MCF7 HER2- cell line; FIG. 1F. The arrangement: species or system human. As to the method:
as §1

In assay [3] the test system is HER2 receptor. Nature of the assay: HER2 scFv binding in cell-based assay (Alexa-fluor 488 labeled scFv). The arrangement: species or system human. As to the method: as §1

On to “trastuzumab-derived α-HER2 scFv: trastuzumab-derived single-chain variable fragment directed against HER2 (SEQ ID NO:1 core sequence)”, for which the ligand internalization result with HER2 receptor [1] (Sk-BR3 cells (HER2+), FIG. 1D) is on record as “showed ligand internalization”; in the assay with HER2 receptor [1] (Sk-OV3 cells (HER2+), FIG. 1E), “showed ligand internalization”; with HER2 receptor [2] it was “did not”. In addition, the HER2 receptor engagement result is “not in MCF7 cells” in the assay with HER2 receptor [3] (MCF7 cells, do not express HER2 receptor (HER2-), FIG. 1C); “HER2 receptor engagement” with HER2 receptor [3] (Sk-BR3 HER2 expressing (HER2+) cell line, FIG. 1A); “HER2 receptor engagement” in the assay with HER2 receptor [3] (Sk-OV3 HER2 expressing (HER2+) cell line, FIG. 1B).
